Assay results reported in patent US20250295639A1, “METHODS FOR TREATING HEART DISEASES” (Cytokinetics, Incorporated, priority 2024, published 2025).
“And” between values parts separate entries of the source, which are not always exact repeats. Identical values can stand only once.

Legend:
[1] = tested on: patients with symptomatic oHCM; assay: SEQUOIA-HCM phase 3 trial: echocardiography (LVOT gradients, cardiac structure and function); format: in vivo, human; conditions: for LA Volume Index / LV Ejection Fraction / LV Mass Index / LV Maximal Wall Thickness: Non-CMR Cohort N = 225 (Aficamten N = 117)
Source text: The following example describes a phase 3, multi-center, randomized, double-blind, placebo-controlled trial to evaluate the efficacy and safety of aficamten in adults with symptomatic hypertrophic cardiomyopathy and left ventricular outflow tract obstruction. This trial evaluated the effects of treatment with aficamten over a 24-week period on cardiopulmonary exercise capacity and health status in patients with symptomatic oHCM. This trial was intended to establish the efficacy and safety of aficamten with respect to improvements in exercise capacity and patient symptoms, as well as reduction in left ventricular outflow tract gradient (LVOT-G) in patients with oHCM.
This was a Phase 3 randomized, placebo-controlled, double-blind, multi-center trial in patients with symptomatic oHCM. Approximately 270 eligible patients were to be randomized in a 1:1 ratio to receive aficamten or placebo. Doses of 5, 10, 15, or 20 mg or matching placebo were administered in an escalating manner using echocardiography to guide dose titration. Randomization was stratified by use of beta blockers and CPET exercise modality.
The trial comprised three periods. The screening period was up to 6 weeks in duration. The double-blind placebo-controlled treatment period lasted 24 weeks. Following the final dose of aficamten, there was a 4-week safety follow-up period. Aficamten was administered orally once daily. During the initial six weeks of the treatment period, aficamten doses were individually titrated at Weeks 2, 4, and 6 using echocardiography. […] An echocardiogram was performed at each subsequent visit during the trial and the dose down-titrated if necessary. The primary endpoint of pVO2 was measured by CPET at screening and at end of treatment (Week 24). If applicable, patients continued taking background HCM medications consistent with regional clinical practice guidelines during the trial.
Echocardiography. Echocardiography was done during screening and prior to dosing on Day 1. Echocardiography was also performed 2 hours after dosing in the clinic on Weeks 2, 4, 6, 8, 12, 16, 20, 24, and 28.
Certified sonographers performed echocardiography using standard high-quality, high-fidelity machines. Whenever possible, the same sonographer performed all studies for a single patient. Echocardiograms were performed after the patient had been resting in a supine position for at least 10 minutes and in accordance with the echocardiography manual. Instructions for the performance of the Valsalva maneuver and imaging the LVOT-G were also included in the echocardiography manual.
Echocardiographic parameters measured at least included the left ventricular parameters (resting left ventricular outflow tract pressure gradient (LVOT-G), post-Valsalva LVOT-G, LVEF, LVFS, global longitudinal strain (GLS), left ventricular end diastolic diameter (LVEDD), left ventricular end diastolic volume (LVEDV), left ventricular end systolic diameter (LVESD), left ventricular end systolic volume (LVESV), left ventricular cardiac output (LVCO), LV Stroke Volume, LVOT velocity time integral (VTI), interventricular septum thickness (IVST), isovolumic contraction time (IVCT), IVRT, E/E, ratio (septal and lateral), and left atrial volume (LAV)) in addition to right heart function metrics detailed in the echocardiography protocol.
All echocardiograms (including unscheduled) were sent to the core laboratory for interpretation. On-site interpretation of LVEF and LVOT-G were used for dose escalation and reduction decisions via IWRS. The core laboratory quantification of the echocardiograms was used for all statistical analyses.
Baseline values are presented as mean±SD. Placebo corrected differences are presented as mean±95% CI and adjusted for treatment and stratification by beta-blockers and exercise mode (bicycle vs treadmill). […]

[2] = tested on: patients with symptomatic oHCM; assay: SEQUOIA-HCM cardiovascular magnetic resonance (CMR) substudy; format: in vivo, human; conditions: Echo Measurements; CMR Cohort N = 57 (Aficamten N = 25); Week 24
[3] = Echo Measurements, Non-CMR Cohort N = 225, vs placebo
[4] = Treatment (Week 24), listed as Aficamten

Compound: CCc1nc(-c2ccc3c(c2)CC[C@H]3NC(=O)c2cnn(C)c2)no1 [aficamten, (R)—N-(5-(5-ethyl-1,2,4-oxadiazol-3-yl)-2,3-dihydro-1H-inden-1-yl)-1-methyl-1H-pyrazole-4-carboxamide]
- patients of the SAM-resolution group reverting to baseline mitral valve SAM after washout ([1]; 50/61): 82%
- patients with complete resolution of mitral valve SAM ([1]; 61/117, 24 weeks treatment): 52%
- LA Volume Index ([1]; Echo Measurements, Baseline): 40 ± 13 mL/m^2
- LV Ejection Fraction ([1]; Echo Measurements, Baseline): 74.8 ± 5.6%
- LV Mass Index ([1]; Echo Measurements, Baseline): 131 ± 33 g/m^2
- LV Maximal Wall Thickness ([1]; Echo Measurements, Baseline): 20.7 ± 3.0 mm
- LA Volume Index ([1]; Echo Measurements, Week 24): 37 ± 11 mL/m^2
- LV Ejection Fraction ([1]; Echo Measurements, Week 24): 67.8 ± 7.4%
- LV Mass Index ([1]; Echo Measurements, Week 24): 126 ± 33 g/m^2
- LV Maximal Wall Thickness ([1]; Echo Measurements, Week 24): 19.2 ± 3.2 mm
- LA Volume Index, Treatment Effect [1, 3]: −5 mL/m^2
- LV Ejection Fraction, Treatment Effect [1, 3]: −5.3%
- LV Mass Index, Treatment Effect [1, 3]: −13 g/m^2
- LV Maximal Wall Thickness, Treatment Effect [1, 3]: −1.2 mm
- Inferolateral wall: placebo-corrected treatment difference (95% CI) ([1]; Treatment (Week 24)): −0.8 (−1.3, −0.3) mm
- Interventricular septal wall: placebo-corrected treatment difference (95% CI) ([1]; Treatment (Week 24)): −1.0 (−1.6, −0.3) mm
- LA volume index: placebo-corrected treatment difference (95% CI) ([1]; Treatment (Week 24)): −3.8 ml/m2
- LA width: placebo-corrected treatment difference (95% CI) ([1]; Treatment (Week 24)): −2.7 (−3.8, −1.7) mm
- LV Fractional Shortening: placebo-corrected treatment difference (95% CI) ([1]; Treatment (Week 24)): −4 (−7, −2) %
- LV end diastolic dimension: placebo-corrected treatment difference (95% CI) ([1]; Treatment (Week 24)): −0.3 (−1.1, 0.5) mm
- LV end diastolic volume index: placebo-corrected treatment difference (95% CI) ([1]; Treatment (Week 24)): −0.2 (−1.5, 1.2) ml/m2
- LV end systolic dimension: placebo-corrected treatment difference (95% CI) ([1]; Treatment (Week 24)): +1.6 (0.7, 2.4) mm
- LV end systolic volume index: placebo-corrected treatment difference (95% CI) ([1]; Treatment (Week 24)): +1.7 ml/m2
- LV mass index: placebo-corrected treatment difference (95% CI) ([1]; Treatment (Week 24)): −12.2 (−18.0, −6.5) g/m2
- LVOT Gradient, Valsalva: placebo-corrected treatment difference (95% CI) ([1]; Treatment (Week 24)): −50 mmHg
- LVOT Gradient, rest: placebo-corrected treatment difference (95% CI) ([1]; Treatment (Week 24)): −40 mmHg
- Lateral E/e′: placebo-corrected treatment difference (95% CI) ([1]; Treatment (Week 24)): −3.9
- Lateral e′ velocity: placebo-corrected treatment difference (95% CI) ([1]; Treatment (Week 24)): +1.2 cm/s
- Max wall thickness: placebo-corrected treatment difference (95% CI) ([1]; Treatment (Week 24)): −1.2 (−1.8, −0.6) mm
- Peak A wave velocity: placebo-corrected treatment difference (95% CI) ([1]; Treatment (Week 24)): −2.4 (−6.3, 1.5) cm/s
- Peak E wave velocity: placebo-corrected treatment difference (95% CI) ([1]; Treatment (Week 24)): −7.5 (−11.7, −3.2) cm/s
- RV s′ velocity: placebo-corrected treatment difference (95% CI) ([1]; Treatment (Week 24)): −1.4(−2.0, −0.9) cm/s
- Septal E/e′: placebo-corrected treatment difference (95% CI) ([1]; Treatment (Week 24)): −3.6
- Septal e′ velocity: placebo-corrected treatment difference (95% CI) ([1]; Treatment (Week 24)): +0.5 cm/s
- TAPSE: placebo-corrected treatment difference (95% CI) ([1]; Treatment (Week 24)): −2.1 (−3.2,−1.1) mm
- LA volume index: placebo-corrected treatment difference (95% CI) [1, 4]: −3.8 (−5.5, −2.2) ml/m2
- LV Ejection Fraction: placebo-corrected treatment difference (95% CI) [1, 4]: −4.8% and −5 (−6, −3) %
- LV end systolic volume index: placebo-corrected treatment difference (95% CI) [1, 4]: +1.7 (1.0, 2.4) ml/m2
- LV global circumferential strain (absolute): placebo-corrected treatment difference (95% CI) [1, 4]: −3.7% and −3.7 (−5.6, −1.8) %
- LVOT Gradient, Valsalva: placebo-corrected treatment difference (95% CI) [1, 4]: −50 (−57, −44) mmHg
- LVOT Gradient, rest: placebo-corrected treatment difference (95% CI) [1, 4]: −40 (−46, −34) mmHg
- Lateral E/e′: placebo-corrected treatment difference (95% CI) [1, 4]: −3.9 (−5.0, −2.8)
- Lateral e′ velocity: placebo-corrected treatment difference (95% CI) [1, 4]: 1.2 (0.7, 1.6) cm/s
- Septal E/e′: placebo-corrected treatment difference (95% CI) [1, 4]: −3.6 (−4.8, −2.5)
- Septal e′ velocity: placebo-corrected treatment difference (95% CI) [1, 4]: 0.5 (0.2, 0.8) cm/s
- Inferolateral wall: placebo-corrected treatment difference (95% CI) ([1]; Washout (Week 28)): −0.2 (−0.8, 0.3) mm
- Interventricular septal wall: placebo-corrected treatment difference (95% CI) ([1]; Washout (Week 28)): −0.3 (−1.0, 0.4) mm
- LA volume index: placebo-corrected treatment difference (95% CI) ([1]; Washout (Week 28)): −3.0 (−4.9, −1.0) ml/m2
- LA width: placebo-corrected treatment difference (95% CI) ([1]; Washout (Week 28)): −0.8 (−1.8, 0.3) mm
- LV Ejection Fraction: placebo-corrected treatment difference (95% CI) ([1]; Washout (Week 28)): −1 (−2, 1) %
- LV Fractional Shortening: placebo-corrected treatment difference (95% CI) ([1]; Washout (Week 28)): −1 (−3, 2) %
- LV end diastolic dimension: placebo-corrected treatment difference (95% CI) ([1]; Washout (Week 28)): −0.7 (−1.6, 0.2) mm
- LV end diastolic volume index: placebo-corrected treatment difference (95% CI) ([1]; Washout (Week 28)): −1.2 (−2.5, 0.1) ml/m2
- LV end systolic dimension: placebo-corrected treatment difference (95% CI) ([1]; Washout (Week 28)): −0.2 (−1.1, 0.8) mm
- LV end systolic volume index: placebo-corrected treatment difference (95% CI) ([1]; Washout (Week 28)): −0.1 (−0.7, 0.5) ml/m2
- LV global circumferential strain (absolute): placebo-corrected treatment difference (95% CI) ([1]; Washout (Week 28)): −0.8 (−2.5, 0.9) %
- LV global longitudinal strain (absolute): placebo-corrected treatment difference (95% CI) ([1]; Washout (Week 28)): −0.1 (−0.6, 0.5) %
- LV mass index: placebo-corrected treatment difference (95% CI) ([1]; Washout (Week 28)): −3.7 (−10.2, 2.8) g/m2
- LVOT Gradient, Valsalva: placebo-corrected treatment difference (95% CI) ([1]; Washout (Week 28)): −1 (−8, 6) mmHg
- LVOT Gradient, rest: placebo-corrected treatment difference (95% CI) ([1]; Washout (Week 28)): −1 (−6, 7) mmHg
- Lateral E/e′: placebo-corrected treatment difference (95% CI) ([1]; Washout (Week 28)): −0.2 (−1.6, 1.2)
- Lateral e′ velocity: placebo-corrected treatment difference (95% CI) ([1]; Washout (Week 28)): −0.2 (−0.6, 0.3) cm/s
- Peak A wave velocity: placebo-corrected treatment difference (95% CI) ([1]; Washout (Week 28)): 3.2 (−0.5, 6.9) cm/s
- Peak E wave velocity: placebo-corrected treatment difference (95% CI) ([1]; Washout (Week 28)): −1.6 (−5.8, 2.7) cm/s
- RV s′ velocity: placebo-corrected treatment difference (95% CI) ([1]; Washout (Week 28)): +0.3 (−0.2, 0.9) cm/s
- Septal E/e′: placebo-corrected treatment difference (95% CI) ([1]; Washout (Week 28)): −0.6 (−1.7, 0.6)
- Septal e′ velocity: placebo-corrected treatment difference (95% CI) ([1]; Washout (Week 28)): −0.0 (−0.3, 0.2) cm/s
- TAPSE: placebo-corrected treatment difference (95% CI) ([1]; Washout (Week 28)): +0.8 (−0.3, 1.9) mm
- rest LV outflow tract gradient on treatment ([1]; end of treatment period, from 55±27 at baseline): 20±17 mmHg
- Valsalva LV outflow tract gradient on treatment ([1]; end of treatment period, from 83±32 at baseline): 35±25 mmHg
- reduction of Valsalva LVOT gradient compared to baseline ([1]; week 2): 25%
- reduction of rest LVOT gradient compared to baseline ([1]; week 2): 31%
- LV Mass Index [2]: 120 ± 32 g/m2
